Experiments:
AdiC (S26C mutant) [1] = biological target: AdiC (S26C mutant) (Salmonella enterica, UniProt P60066, C129S/C238S/C281S/C286S/C369S/C398S/C80S/C97S/S26C); experiment: competitive inhibition of […]-arginine uptake in oriented proteoliposomes; assay type: biochemical
[2] = biological target: AdiC (arginine-agmatine antiporter) (Salmonella enterica, UniProt P60066); experiment: isothermal titration calorimetry; assay type: binding
AdiC (S26C mutant) [3] = biological target: T1, AdiC (S26C mutant) (Salmonella enterica, UniProt P60066, S26C/C80S/C97S/C129S/C238S/C281S/C286S/C369S/C398S); experiment: isothermal titration calorimetry; assay type: binding
T1 sequence (P60066 1-445 S26C/C80S/C97S/C129S/C238S/C281S/C286S/C369S/C398S): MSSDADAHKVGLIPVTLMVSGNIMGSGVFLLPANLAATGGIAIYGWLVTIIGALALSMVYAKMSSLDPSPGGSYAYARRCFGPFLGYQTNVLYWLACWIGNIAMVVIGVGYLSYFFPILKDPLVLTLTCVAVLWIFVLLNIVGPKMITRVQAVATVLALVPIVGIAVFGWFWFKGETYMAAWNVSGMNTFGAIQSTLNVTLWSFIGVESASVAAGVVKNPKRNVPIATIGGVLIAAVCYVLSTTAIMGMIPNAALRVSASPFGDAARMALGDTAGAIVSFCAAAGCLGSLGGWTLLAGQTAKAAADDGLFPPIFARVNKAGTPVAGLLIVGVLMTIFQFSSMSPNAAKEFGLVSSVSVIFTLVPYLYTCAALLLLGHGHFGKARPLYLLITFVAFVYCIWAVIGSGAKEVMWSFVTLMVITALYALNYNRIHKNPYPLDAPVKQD

SMILES | Ki (AdiC (S26C mutant) [1]) | Kd [2] | Kd (AdiC (S26C mutant) [3])
N=C(N)NCCC[C@H](N)C(N)=O [argininamide] | 1100 µM | – | –
N=C(N)NCCC[C@H](N)C(=O)O [arginine] | – | 32 µM | 22 ± 2 µM
